# Earlier results as cited in patent publication US20050255458A1, “Drug discovery assays based on the biology of chronic disease” (priority 2002, published 2005).
# Where a name gives a salt, the structure may show the parent alone. Read-outs that look alike come from different tables or passages of the source.
# Key:
# [1] = cited from earlier work
# [2] = test system: GABP; conditions: cited from earlier work; for GABP DNA binding activity, treated nuclear extracts: 3T3 nuclear extracts, DTT on extracts of DEM-treated cells, GSSG 5 mM; for GABP DNA binding activity (EMSA): 3T3 cells treated 2 h, single and double N-box probes
# [3] = test system: NOD mice; conditions: mouse, in vivo; cited from earlier work
# [4] = test system: ERK1 and ERK2; conditions: cited from earlier work; for MAPK activation: Wen 1996, Rao 1994
# [5] = test system: hair follicles (onset of anagen); conditions: cited from earlier work; for delay in hair regrowth: topical 10 nmol twice weekly, female CD-1 mice
# [6] = molecular target: T1, AT1-receptor (Oryctolagus cuniculus, UniProt P34976); conditions: cited from earlier work
# T1 construct: from tissue; host or cells: whole animal: Watanabe and New Zealand White rabbits
# T1 sequence (P34976 1-359): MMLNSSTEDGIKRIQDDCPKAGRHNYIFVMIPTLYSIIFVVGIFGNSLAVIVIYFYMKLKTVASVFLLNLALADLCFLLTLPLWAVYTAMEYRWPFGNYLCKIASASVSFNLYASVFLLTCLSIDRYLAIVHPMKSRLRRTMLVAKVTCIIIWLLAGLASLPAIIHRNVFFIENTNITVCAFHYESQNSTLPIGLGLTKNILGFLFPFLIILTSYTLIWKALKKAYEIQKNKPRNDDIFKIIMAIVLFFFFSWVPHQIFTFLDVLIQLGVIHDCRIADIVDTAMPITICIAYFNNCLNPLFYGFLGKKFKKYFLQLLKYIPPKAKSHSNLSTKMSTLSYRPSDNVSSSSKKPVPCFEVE
# [7] = test system: double N-box-TATA-Luc; conditions: cited from earlier work; for decrease in luciferase expression: double N-box-TATA-Luc
# [8] = test system: apoE(−/−) mice; conditions: 48 hours post injection; cited from earlier work
# [9] = test system: TF; conditions: cited from earlier work
# [10] = test system: papilla cells; conditions: cited from earlier work
# [11] = test system: anagen hair follicles; conditions: Kondo 1990; cited from earlier work
# [12] = test system: ERK; conditions: cited from earlier work
# [13] = test system: AR gene; conditions: LNCaP; cited from earlier work
# [14] = test system: Elk-1; conditions: Peterziel 1999; cited from earlier work
# [15] = test system: TF; conditions: dose-dependent; cited from earlier work
# [16] = test system: ERK; conditions: Jurkat cells; cited from earlier work
# [17] = test system: ocular melanoma cell lines; conditions: cited from earlier work
# [18] = test system: TF antigen; conditions: starting on day 3, significant on day 28; cited from earlier work
# [19] = test system: metallothionein (MT); conditions: OC15 EC, OC15 END cells; cited from earlier work
# [20] = test system: apo(a) transgenic mice; conditions: 12 weeks; cited from earlier work
# [21] = test system: fibronectin; conditions: cited from earlier work
# [22] = test system: 20-3 cells; conditions: cited from earlier work
# [23] = test system: AChRδ and AChRε genes; conditions: cited from earlier work
# [24] = test system: ERK1/2; conditions: cited studies, various cells; cited from earlier work
# [25] = test system: TF; conditions: cited from earlier work; remark: listed apart in the source
compound,measurement,setting,value
"CN(N=O)C(=O)N[C@H]1C(O)O[C@H](CO)[C@@H](O)[C@@H]1O (mixture of isomers) [STZ, streptozotocin]",increase in ratio of liver weight to body weight,[1]; 8 days after injection,12%
same,hepatocyte mitosis,[1]; 8 days,300 % of normal
same,increase in ratio of liver weight to body weight,[1]; 30 days,44%
same,hepatocyte mitosis,[1]; 90 days,25 % of normal
"O[C@H](CS)[C@H](O)CS (racemic) [DTT, dithiothreitol]","GABP DNA binding activity, treated nuclear extracts",[2],restored GABP binding activity
O=C(O)CCCC[C@@H]1CCSS1 (racemic) [lipoic acid],insulitis and diabetes,[3],decreased insulitis and delayed diabetes
CCCCC/C=C\C[C@H](O)/C=C/C=C\C/C=C\CCCC(=O)O [12-HETE],MAPK activation,[4],activation of MAPK
CCCCC[C@H](O)/C=C/C=C\C/C=C\C/C=C\CCCC(=O)O [15-HETE],MAPK activation,[4],activation of MAPK
C[C@]12CC[C@@H]3c4ccc(O)cc4CC[C@H]3[C@@H]1CC[C@@H]2O [17β-estradiol],delay in hair regrowth,[5],indefinite delay
same,hair growth,[5]; topical application (Chanda 2000),decreased hair growth
"O=C(O)CCC/C=C\C/C=C\C/C=C\C/C=C\CCCCCO [20-HETE, 20-hydroxyeicosatetraenoic acid]",ERK1 and ERK2 activation,"[4]; 0.25 μM, 10 min",activated ERK1 and ERK2
CCCCc1cc(C(=O)OC)cc(=O)n1Cc1ccc(-c2ccccc2-c2nnn[nH]2)cc1F [Bay 10-6734],fat-stained area in the aorta,"[6]; 25 mg/kg/day, high-cholesterol diet",5.3±1.4%
same,% of macrophage stained area/total plaque cross sectional area,[6]; 25 mg/kg/day,1±0.2%
same,cholesterol levels,[6]; hyperlipidemic or control animals,did not change the cholesterol levels
"CCOC(=O)/C=C\C(=O)OCC [DEM, diethyl maleate]",GABP DNA binding activity (EMSA),[2],decreased formation
same,luciferase expression from C/EBP-TA-Luc,[7]; 6 or 8 h treatment,no effect
same,decrease in luciferase expression,[7]; 6 h,28%
same,decrease in luciferase expression,[7]; 8 h,62%
"CCCCCCCCCCCCCCCC(=O)OC[C@H](COP(=O)([O-])OCC[N+](C)(C)C)OC(=O)CCCCCCCCCCCCCCC [DPPC, dipalmitoylphosphatidylcholine]",lipid content of aortic sinus,[8],18.1±4.7 % of plaque area
same,macrophage content of aortic sinus,[8],9.3±5.8 % of plaque area
"CC(=O)N[C@@H](CS)C(=O)O [NAC, N-Acetylcysteine]",GABP DNA binding activity (EMSA),[2],prevented
same,TF activity,"[9]; cells incubated with AGE-alb, 30 mmol/L",concentration dependent inhibition of TF activity
same,AGE-alb induced TF mRNA,[9],almost completely suppressed
C[C@]12CC[C@H]3[C@@H](CCC4=CC(=O)CC[C@@]43C)[C@@H]1CC[C@@H]2O [Testosterone],papilla cell proliferation,"[10]; 345 nM, 14 days",significantly decreased papilla cell proliferation
same,dermal papilla cell proliferation,"[10]; 10^−10 to 10^−7 M, alone or co-cultured (Obana 1997)",no effect
same,concentrations with no significant effect on papilla cell proliferation,[10]; Kiesewetter 1993,lower than 173 nM
same,growth of isolated hair follicles,[11],growth inhibition
same,Effect on [ERK^phos],[12]; SW-13 human adrenal carcinoma,↑[ERK^phos]
same,Effect on [mRNAAR],[13],↓[mRNAAR]
same,delay in hair regrowth,[5],small delay
CCNc1cccnc1N1CCN(CC2(C)CCc3c(C)c(O)c(C)c(C)c3O2)CC1.Cl (stereo not shown) [U78518F],insulitis and diabetes,[3],decreased insulitis and delayed diabetes
CC(O)(CS(=O)(=O)c1ccc(F)cc1)C(=O)Nc1ccc(C#N)c(C(F)(F)F)c1 (stereo not shown) [casodex],Elk-1 transcription activity,[14],increase in Elk-1 transcription activity
CC(C)(O)C(=O)Nc1ccc([N+](=O)[O-])c(C(F)(F)F)c1 [hydroxyflutamide],Elk-1 transcription activity,[14],increase in Elk-1 transcription activity
CN(CC(=O)NO)C(=O)[C@@H]1CCCC[C@@H]1C(=O)O [idrapril],TF activity,[15],decreased TF activity
C[C@H](CCC(=O)O)C[C@H](C)C[C@H](C)C(=O)/C=C(\O)[C@H](C)C[C@H](C)C/C=C/[C@@H](C)[C@@H](O)[C@@H](C)[C@@H](O)C[C@@H]1CC[C@@](C)([C@H]2CC[C@@](C)([C@@H](C)O)O2)O1 [ionomycin],ERK phosphorylation,[16],increased ERK phosphorylation
same,cell attachment to plates coated with fibronectin and other matrix proteins,[17],Significant inhibition
CCCCc1nc(Cl)c(CO)n1Cc1ccc(-c2ccccc2-c2nn[nH]n2)cc1 [losartan],plasma TF antigen levels,[18],negative effect on plasma TF antigen levels
NC(=O)c1cccnc1 [nicotinamide],insulitis and diabetes,[3],decreased insulitis and delayed diabetes
CC(=O)[O-].[Na+] [sodium acetate],MT mRNA levels,[19],no effect
CCC(=O)[O-].[Na+] [sodium propionate],MT mRNA levels,[19],no effect
CC/C(=C(\c1ccccc1)c1ccc(OCCN(C)C)cc1)c1ccccc1 [tamoxifen],cell attachment to plates coated with fibronectin and other matrix proteins,[17],significant inhibition of cell attachment
same,decrease of area of focal apo(a) accumulation,[20],97%
same,decrease of average level of apo(a) in the vessel wall,[20],69%
same,decrease of lesion area,[20],92%
same,decrease of number of lipid lesions,[20],80%
NCCCCCC(=O)O [ε-ACA],Lp(a) binding to fibronectin,[21],not effective against Lp(a) binding to fibronectin
same,binding of plasminogen to fibronectin,[21],inhibited binding of plasminogen to fibronectin
"EGF: EGF, an ERK agent",Elk-1 transcription activity,[14],Elk-1 activation
same,Effect on [ERK^phos],[12]; DU145,↑[ERK^Phos]
same,Effect on [ERK^phos],[12]; LNCaP,↑[ERK^phos]
same,Effect on [ERK^phos],[12]; PC-3,↑[ERK^phos]
same,Effect on [mRNAAR],[13],↓[mRNAAR]
TGFβ1: transforming growth factor-β1,labeling index after treatment,"[22]; 5 ng/ml, 72 h, permissive temperature (from 95%)",80%
same,labeling index after treatment,[22]; 72 h non-permissive then 24 h permissive (from 60%),below 10%
same,labeling index after treatment,[22]; non-permissive temperature (from 20%),less than 5%
heregulin,increase in GABPα protein level,"[23]; Western blot, treated vs untreated cells",2 fold
same,phosphorylation of GABPα and GABPβ,[23]; chick primary myotubes,increased phosphorylation
same,transcription of AChRδ and AChRε genes,[23],increased transcription
same,transcription of utrophin,[23],stimulated transcription
same,phosphorylation of ERK1/2,[24],phosphorylation of ERK1/2
oxidized glutathione [GSSG],"GABP DNA binding activity, treated nuclear extracts",[2],nearly abolished GABP DNA binding
vitamin E,insulitis and diabetes,[3],decreased insulitis and delayed diabetes
same,effect on LPS induced TF expression,[25],inhibited the LPS induced expression
same,effect on Cu^+2 induced procoagulant activity,"[25]; probucol 20, vitamin E 50, BHT 50, U74389G 20 μmol/L",inhibited the Cu^+2 induced procoagulant activity
